From the NIST ThermoML archive (doi:10.1016/j.jct.2015.08.014)
Numbers after ± are expanded uncertainties.

Experiment: xn = mol fraction of the nth substance listed
Conditions: 303.15 K, 100 kPa, Liquid, Alternating current cell with electrodes

## CCCC[N+]1(C)CCCC1.N#CN=C=[N-] [1-butyl-1-methylpyrrolidinium dicyanamide] + O=C1CCCO1
Frequency=0.00347222 MHz, x1 = 0.4985
  electrical conductivity: 2.33 ± 0.024 S/m
Frequency=0.00347222 MHz, x1 = 0.6954
  electrical conductivity: 1.912 ± 0.019 S/m
Frequency=0.00347222 MHz, x1 = 0.9013
  electrical conductivity: 1.607 ± 0.016 S/m
Frequency=0.00347222 MHz, x1 = 1
  electrical conductivity: 1.527 ± 0.015 S/m
Frequency=0.004 MHz, x1 = 0.0463
  electrical conductivity: 1.58 ± 0.028 S/m
Frequency=0.004 MHz, x1 = 0.0987
  electrical conductivity: 2.38 ± 0.03 S/m
Frequency=0.004 MHz, x1 = 0.1449
  electrical conductivity: 2.71 ± 0.029 S/m
Frequency=0.004 MHz, x1 = 0.1859
  electrical conductivity: 2.9 ± 0.029 S/m
Frequency=0.004 MHz, x1 = 0.2493
  electrical conductivity: 2.85 ± 0.029 S/m
Frequency=0.004 MHz, x1 = 0.3029
  electrical conductivity: 2.79 ± 0.028 S/m
Frequency=0.004 MHz, x1 = 0.3845
  electrical conductivity: 2.618 ± 0.026 S/m
Frequency=0.004 MHz, x1 = 0.4985
  electrical conductivity: 2.33 ± 0.024 S/m
Frequency=0.004 MHz, x1 = 0.6954
  electrical conductivity: 1.912 ± 0.019 S/m
Frequency=0.004 MHz, x1 = 0.9013
  electrical conductivity: 1.607 ± 0.016 S/m
Frequency=0.004 MHz, x1 = 1
  electrical conductivity: 1.527 ± 0.015 S/m
Frequency=0.00446429 MHz, x1 = 0.0463
  electrical conductivity: 1.58 ± 0.028 S/m
Frequency=0.00446429 MHz, x1 = 0.0987
  electrical conductivity: 2.38 ± 0.03 S/m
Frequency=0.00446429 MHz, x1 = 0.1449
  electrical conductivity: 2.71 ± 0.029 S/m
Frequency=0.00446429 MHz, x1 = 0.1859
  electrical conductivity: 2.9 ± 0.029 S/m
Frequency=0.00446429 MHz, x1 = 0.2493
  electrical conductivity: 2.85 ± 0.029 S/m
Frequency=0.00446429 MHz, x1 = 0.3029
  electrical conductivity: 2.79 ± 0.028 S/m
Frequency=0.00446429 MHz, x1 = 0.3845
  electrical conductivity: 2.618 ± 0.026 S/m
Frequency=0.00446429 MHz, x1 = 0.4985
  electrical conductivity: 2.33 ± 0.024 S/m
Frequency=0.00446429 MHz, x1 = 0.6954
  electrical conductivity: 1.912 ± 0.019 S/m
Frequency=0.00446429 MHz, x1 = 0.9013
  electrical conductivity: 1.608 ± 0.016 S/m
Frequency=0.00446429 MHz, x1 = 1
  electrical conductivity: 1.527 ± 0.015 S/m
Frequency=0.005 MHz, x1 = 0.0463
  electrical conductivity: 1.58 ± 0.028 S/m
Frequency=0.005 MHz, x1 = 0.0987
  electrical conductivity: 2.38 ± 0.03 S/m
Frequency=0.005 MHz, x1 = 0.1449
  electrical conductivity: 2.71 ± 0.029 S/m
Frequency=0.005 MHz, x1 = 0.1859
  electrical conductivity: 2.9 ± 0.029 S/m
Frequency=0.005 MHz, x1 = 0.2493
  electrical conductivity: 2.85 ± 0.029 S/m
Frequency=0.005 MHz, x1 = 0.3029
  electrical conductivity: 2.79 ± 0.028 S/m
Frequency=0.005 MHz, x1 = 0.3845
  electrical conductivity: 2.618 ± 0.026 S/m
Frequency=0.005 MHz, x1 = 0.4985
  electrical conductivity: 2.33 ± 0.024 S/m
Frequency=0.005 MHz, x1 = 0.6954
  electrical conductivity: 1.912 ± 0.019 S/m
Frequency=0.005 MHz, x1 = 0.9013
  electrical conductivity: 1.608 ± 0.016 S/m
Frequency=0.005 MHz, x1 = 1
  electrical conductivity: 1.527 ± 0.015 S/m
Frequency=0.005454 MHz, x1 = 0.0463
  electrical conductivity: 1.58 ± 0.028 S/m
Frequency=0.005454 MHz, x1 = 0.0987
  electrical conductivity: 2.38 ± 0.03 S/m
Frequency=0.005454 MHz, x1 = 0.1449
  electrical conductivity: 2.71 ± 0.029 S/m
Frequency=0.005454 MHz, x1 = 0.1859
  electrical conductivity: 2.9 ± 0.029 S/m
Frequency=0.005454 MHz, x1 = 0.2493
  electrical conductivity: 2.86 ± 0.029 S/m
Frequency=0.005454 MHz, x1 = 0.3029
  electrical conductivity: 2.79 ± 0.028 S/m
Frequency=0.005454 MHz, x1 = 0.3845
  electrical conductivity: 2.619 ± 0.026 S/m
Frequency=0.005454 MHz, x1 = 0.4985
  electrical conductivity: 2.33 ± 0.024 S/m
Frequency=0.005454 MHz, x1 = 0.6954
  electrical conductivity: 1.912 ± 0.019 S/m
Frequency=0.005454 MHz, x1 = 0.9013
  electrical conductivity: 1.608 ± 0.016 S/m
Frequency=0.005454 MHz, x1 = 1
  electrical conductivity: 1.527 ± 0.015 S/m
Frequency=0.006 MHz, x1 = 0.0463
  electrical conductivity: 1.58 ± 0.028 S/m
Frequency=0.006 MHz, x1 = 0.0987
  electrical conductivity: 2.38 ± 0.03 S/m
Frequency=0.006 MHz, x1 = 0.1449
  electrical conductivity: 2.71 ± 0.029 S/m
Frequency=0.006 MHz, x1 = 0.1859
  electrical conductivity: 2.9 ± 0.029 S/m
Frequency=0.006 MHz, x1 = 0.2493
  electrical conductivity: 2.86 ± 0.029 S/m
Frequency=0.006 MHz, x1 = 0.3029
  electrical conductivity: 2.79 ± 0.028 S/m
Frequency=0.006 MHz, x1 = 0.3845
  electrical conductivity: 2.619 ± 0.026 S/m
Frequency=0.006 MHz, x1 = 0.4985
  electrical conductivity: 2.33 ± 0.024 S/m
Frequency=0.006 MHz, x1 = 0.6954
  electrical conductivity: 1.912 ± 0.019 S/m
Frequency=0.006 MHz, x1 = 0.9013
  electrical conductivity: 1.608 ± 0.016 S/m
Frequency=0.006 MHz, x1 = 1
  electrical conductivity: 1.527 ± 0.015 S/m
Frequency=0.00652174 MHz, x1 = 0.0463
  electrical conductivity: 1.58 ± 0.028 S/m
Frequency=0.00652174 MHz, x1 = 0.0987
  electrical conductivity: 2.38 ± 0.03 S/m
Frequency=0.00652174 MHz, x1 = 0.1449
  electrical conductivity: 2.71 ± 0.029 S/m
Frequency=0.00652174 MHz, x1 = 0.1859
  electrical conductivity: 2.9 ± 0.029 S/m
Frequency=0.00652174 MHz, x1 = 0.2493
  electrical conductivity: 2.86 ± 0.029 S/m
Frequency=0.00652174 MHz, x1 = 0.3029
  electrical conductivity: 2.79 ± 0.028 S/m
Frequency=0.00652174 MHz, x1 = 0.3845
  electrical conductivity: 2.619 ± 0.026 S/m
Frequency=0.00652174 MHz, x1 = 0.4985
  electrical conductivity: 2.33 ± 0.024 S/m
Frequency=0.00652174 MHz, x1 = 0.6954
  electrical conductivity: 1.913 ± 0.019 S/m
Frequency=0.00652174 MHz, x1 = 0.9013
  electrical conductivity: 1.608 ± 0.016 S/m
Frequency=0.00652174 MHz, x1 = 1
  electrical conductivity: 1.527 ± 0.015 S/m
Frequency=0.00694444 MHz, x1 = 0.0463
  electrical conductivity: 1.58 ± 0.028 S/m
Frequency=0.00694444 MHz, x1 = 0.0987
  electrical conductivity: 2.38 ± 0.03 S/m
Frequency=0.00694444 MHz, x1 = 0.1449
  electrical conductivity: 2.71 ± 0.029 S/m
Frequency=0.00694444 MHz, x1 = 0.1859
  electrical conductivity: 2.901 ± 0.029 S/m
Frequency=0.00694444 MHz, x1 = 0.2493
  electrical conductivity: 2.86 ± 0.029 S/m
Frequency=0.00694444 MHz, x1 = 0.3029
  electrical conductivity: 2.79 ± 0.028 S/m
Frequency=0.00694444 MHz, x1 = 0.3845
  electrical conductivity: 2.619 ± 0.026 S/m
Frequency=0.00694444 MHz, x1 = 0.4985
  electrical conductivity: 2.33 ± 0.024 S/m
Frequency=0.00694444 MHz, x1 = 0.6954
  electrical conductivity: 1.913 ± 0.019 S/m
Frequency=0.00694444 MHz, x1 = 0.9013
  electrical conductivity: 1.608 ± 0.016 S/m
Frequency=0.00694444 MHz, x1 = 1
  electrical conductivity: 1.527 ± 0.015 S/m
Frequency=0.0075 MHz, x1 = 0.0463
  electrical conductivity: 1.58 ± 0.028 S/m
Frequency=0.0075 MHz, x1 = 0.0987
  electrical conductivity: 2.38 ± 0.03 S/m
Frequency=0.0075 MHz, x1 = 0.1449
  electrical conductivity: 2.71 ± 0.029 S/m
Frequency=0.0075 MHz, x1 = 0.1859
  electrical conductivity: 2.901 ± 0.029 S/m
Frequency=0.0075 MHz, x1 = 0.2493
  electrical conductivity: 2.86 ± 0.029 S/m
Frequency=0.0075 MHz, x1 = 0.3029
  electrical conductivity: 2.79 ± 0.028 S/m
Frequency=0.0075 MHz, x1 = 0.3845
  electrical conductivity: 2.619 ± 0.026 S/m
Frequency=0.0075 MHz, x1 = 0.4985
  electrical conductivity: 2.33 ± 0.024 S/m
Frequency=0.0075 MHz, x1 = 0.6954
  electrical conductivity: 1.913 ± 0.019 S/m
Frequency=0.0075 MHz, x1 = 0.9013
  electrical conductivity: 1.608 ± 0.016 S/m
Frequency=0.0075 MHz, x1 = 1
  electrical conductivity: 1.527 ± 0.015 S/m
Frequency=0.008 MHz, x1 = 0.0463
  electrical conductivity: 1.58 ± 0.028 S/m
Frequency=0.008 MHz, x1 = 0.0987
  electrical conductivity: 2.38 ± 0.03 S/m
Frequency=0.008 MHz, x1 = 0.1449
  electrical conductivity: 2.71 ± 0.029 S/m
Frequency=0.008 MHz, x1 = 0.1859
  electrical conductivity: 2.902 ± 0.029 S/m
Frequency=0.008 MHz, x1 = 0.2493
  electrical conductivity: 2.86 ± 0.029 S/m
Frequency=0.008 MHz, x1 = 0.3029
  electrical conductivity: 2.79 ± 0.028 S/m
Frequency=0.008 MHz, x1 = 0.3845
  electrical conductivity: 2.62 ± 0.026 S/m
Frequency=0.008 MHz, x1 = 0.4985
  electrical conductivity: 2.33 ± 0.024 S/m
Frequency=0.008 MHz, x1 = 0.6954
  electrical conductivity: 1.913 ± 0.019 S/m
Frequency=0.008 MHz, x1 = 0.9013
  electrical conductivity: 1.608 ± 0.016 S/m
Frequency=0.008 MHz, x1 = 1
  electrical conductivity: 1.527 ± 0.015 S/m
Frequency=0.00857143 MHz, x1 = 0.0463
  electrical conductivity: 1.58 ± 0.028 S/m
Frequency=0.00857143 MHz, x1 = 0.0987
  electrical conductivity: 2.38 ± 0.03 S/m
Frequency=0.00857143 MHz, x1 = 0.1449
  electrical conductivity: 2.71 ± 0.029 S/m
Frequency=0.00857143 MHz, x1 = 0.1859
  electrical conductivity: 2.902 ± 0.029 S/m
